This is an account of results in patent publication US11447486B2, “2-amino-benzimidazole derivatives and their use as 5-lipoxygenase and/or prostaglandin E synthase inhibitors” (INSTITUT PASTEUR KOREA, priority 2014, dated 2022).

One assay has as its target T1, human 5-LOX (Homo sapiens, UniProt P09917).
T1 construct: purchased Cayman 60402; host or cells: insect cells (lysate)
T1 sequence (P09917 1-674): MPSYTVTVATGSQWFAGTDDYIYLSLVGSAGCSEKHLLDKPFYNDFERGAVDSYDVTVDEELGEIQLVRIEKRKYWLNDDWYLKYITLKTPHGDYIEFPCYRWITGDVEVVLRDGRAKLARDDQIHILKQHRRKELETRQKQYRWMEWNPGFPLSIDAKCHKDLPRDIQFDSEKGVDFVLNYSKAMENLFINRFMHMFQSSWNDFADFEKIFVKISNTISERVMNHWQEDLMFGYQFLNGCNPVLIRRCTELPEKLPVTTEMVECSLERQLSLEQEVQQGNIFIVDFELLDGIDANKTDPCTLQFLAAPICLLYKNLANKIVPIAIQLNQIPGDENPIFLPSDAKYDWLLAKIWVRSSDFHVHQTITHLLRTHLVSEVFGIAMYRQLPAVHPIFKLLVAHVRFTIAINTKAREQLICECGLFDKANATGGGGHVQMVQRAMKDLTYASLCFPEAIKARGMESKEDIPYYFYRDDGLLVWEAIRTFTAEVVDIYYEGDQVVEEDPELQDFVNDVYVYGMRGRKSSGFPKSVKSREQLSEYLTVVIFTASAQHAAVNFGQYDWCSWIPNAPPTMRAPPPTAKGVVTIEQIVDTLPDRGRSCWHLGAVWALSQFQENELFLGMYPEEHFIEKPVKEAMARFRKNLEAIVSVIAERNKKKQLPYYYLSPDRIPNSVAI
The assay can be described thus: 5-LOX enzyme activity, fluorescence method (5-HPETE, H2DCFDA). The class given is biochemical. As to conditions: read-out: 5-LO (IC50). A digest of the protocol:
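Compound (0.5 nM to 10 uM) pre-incubated 5 min with enzyme; reaction started with ATP (100 uM final) and arachidonic acid (3 uM final). All steps at room temperature, fluorescence read-out.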

In a further assay the test system is Rat whole blood (RWB). The assay can be described thus: LTB4 secretion assay in RWB (rat whole blood). The assay is classed as cell-based. As to conditions: Rattus norvegicus. A digest of the protocol: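 Heparinized blood from male Sprague Dawley rats (6-9 weeks) diluted 1:1 in RPMI, pre-incubated 15 min at 37 °C with compound (2.5 nM to 50 uM). Stimulated with 10 uM calcium ionophore A23187 for 10 min at 37 °C, stopped with ice-cold PBS; LTB4 in supernatant quantified by EIA.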

The test system of assay [1] is Rat basophilic leukemia (RBL) cells. The assay can be described thus: LTB4 secretion assay in RBL (rat basophilic leukemia cells). The class given is cell-based. As to conditions: Rattus norvegicus, RBL. A digest of the protocol: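 Cells seeded 2×10^4/well the day before, then pre-incubated 15 min at 37 °C in EMEM/0.5% FBS with compound (5 nM to 100 uM). Stimulation with 2.5 uM arachidonic acid plus 5 uM A23187 (final) for 10 min at 37 °C; LTB4 in supernatant quantified by EIA.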

pEC50, pIC50: −log10 of the molar value.

As for `Nc1nc2ccc(NC3COC3)cc2n1Cc1ccc(Oc2ccc(Cl)cn2)cc1` [Compound 234], the pIC50 (usually −log10 of the IC50, conventionally taken in molar units) on human 5-LOX was above 6.00. Moreover, the pEC50 (in the assay with Rat whole blood (RWB); in assay [1]) was above 5.00 each time.

Regarding `Nc1ccc2nc(N)n(Cc3ccc(Oc4ccc(Cl)nc4)cc3)c2c1` [Compound 238], the pIC50 on human 5-LOX is above 6.00. In addition, the pEC50 (in the assay on Rat whole blood (RWB); in assay [1]) was above 5.00 each time.

Consider `Nc1ccc2nc(N)n(Cc3ccc(Oc4ccc(Cl)cc4)cn3)c2c1` [Compound 239], for which, at human 5-LOX, the pIC50 is above 6.00. Moreover, the pEC50 (with Rat whole blood (RWB); in assay [1]) was above 5.00 each time.

As to `CN(C)c1nc2ccc(NCc3ccc(C4(C#N)CCOCC4)cc3)cc2[nH]1` [Compound 241], the pIC50 on human 5-LOX was above 6.00. The pEC50 (in general, the negative decadic logarithm of the EC50, by convention in mol/L) in the assay on Rat whole blood (RWB) is below 4.70; in assay [1] it was above 5.00.

In the case of `Nc1ccc2nc(N)n(Cc3ccc(Oc4ccc(C(F)(F)F)cn4)cc3)c2c1` [Compound 243], the pIC50 at human 5-LOX was above 6.00. The pEC50 (with Rat whole blood (RWB); in assay [1]) was above 5.00 each time.

Regarding `Nc1ccc2nc(N)n(Cc3ccc(Oc4ccc(OC(F)(F)F)cc4)cc3)c2c1` [Compound 245], at human 5-LOX, the pIC50 is below 5.00. Further, the pEC50 with Rat whole blood (RWB) is 4.70 to 5.00; in assay [1], above 5.00.

Turning to `Nc1ccc2nc(N)n(Cc3ccc(COc4ccc(Cl)cn4)cc3)c2c1` [Compound 249], the pIC50 at human 5-LOX was above 6.00. Further, the negative logarithm of the EC50 (pEC50) (in the assay with Rat whole blood (RWB); in assay [1]) was above 5.00 in each case.

As for `OCCNc1nc2ccc(NC3COC3)cc2n1Cc1ccc(Oc2ccc(Cl)cn2)cc1` [Compound 251], the pIC50 at human 5-LOX was above 6.00. For the same molecule, the pEC50 (in the assay with Rat whole blood (RWB); in assay [1]) was above 5.00 each time.

As to `CN(C)c1ccc2nc(NCc3ccc(Oc4ccc(Cl)cn4)cc3)n(C)c2c1` [Compound 253], on human 5-LOX, the pIC50 was above 6.00. Also, the pEC50 (in the assay on Rat whole blood (RWB); in assay [1]) was above 5.00 in each case.

With `CC(Nc1nc2ccc(NC3COC3)cc2n1C)c1ccc(Oc2ccc(Cl)cn2)cc1` (stereo not drawn) [Compound 256], on human 5-LOX, the pIC50 is above 6.00. The values for the pEC50 (in the assay with Rat whole blood (RWB); in assay [1]) were above 5.00 and 4.70 to 5.00, respectively.

Turning to `Cn1c(NCc2ccc(Oc3ccc(Cl)cn3)c(F)c2)nc2ccc(NC3COC3)cc21` [Compound 268], at human 5-LOX, the pIC50 is above 6.00. The pEC50 (in the assay with Rat whole blood (RWB); in assay [1]) was above 5.00 throughout.

Take `COCCn1c(NCc2ccc(Oc3ccc(Cl)cn3)cc2)nc2ccc(NC3COC3)cc21` [Compound 269]: the pIC50 on human 5-LOX is above 6.00. For the same molecule, the pEC50 (in the assay with Rat whole blood (RWB); in assay [1]) was above 5.00 each time.

`CCn1c(NCc2ccc(Oc3ccc(Cl)cn3)cc2)nc2ccc(NC3COC3)cc21` [Compound 270]: the pIC50 on human 5-LOX is above 6.00. The pEC50 (in the assay on Rat whole blood (RWB); in assay [1]) was above 5.00 in each case.

Take `CC(C)n1c(NCc2ccc(Oc3ccc(Cl)cn3)cc2)nc2ccc(NC3COC3)cc21` [Compound 271]: at human 5-LOX, the pIC50 was above 6.00. The pEC50 (with Rat whole blood (RWB); in assay [1]) was above 5.00 throughout.

In the case of `Cn1c(NCc2ccc(Oc3ccc(Cl)cn3)cc2F)nc2ccc(NC3COC3)cc21` [Compound 273], at human 5-LOX, the pIC50 was above 6.00. Moreover, the pEC50 is 4.70 to 5.00 with Rat whole blood (RWB) and above 5.00 in assay [1].

For the molecule `CCC(Nc1nc2ccc(NC3COC3)cc2n1C)c1ccc(Oc2ccc(Cl)cn2)cc1` (stereo not drawn) [Compound 275], at human 5-LOX, the pIC50 was above 6.00. Also, the pEC50 (in the assay on Rat whole blood (RWB); in assay [1]) was above 5.00 each time.

With `CN(c1ccc2nc(NCc3ccc(Oc4ccc(Cl)cn4)cc3)n(C)c2c1)C1COC1` [Compound 277], the pIC50 at human 5-LOX is above 6.00. Further, the pEC50 (with Rat whole blood (RWB); in assay [1]) was above 5.00 throughout.

Regarding `FC(F)(F)CCNc1nc2ccc(NC3COC3)cc2n1Cc1ccc(Oc2ccc(Cl)cc2)cc1` [Compound 279], the pIC50 at human 5-LOX is 5.00 to 6.00. Further, the negative-log EC50 (pEC50) (with Rat whole blood (RWB); in assay [1]) was above 5.00 throughout.

Regarding `Cn1c(NCc2ccc(Oc3ccc(Cl)nc3)cc2)nc2ccc(NC3COC3)cc21` [Compound 281], on human 5-LOX, the pIC50 was above 6.00. Also, the pEC50 (with Rat whole blood (RWB); in assay [1]) was above 5.00 throughout.

On to `Cn1c(NCc2ccc(Oc3ccc(C(F)(F)F)cn3)cc2)nc2ccc(NC3COC3)cc21` [Compound 284], for which, on human 5-LOX, the pIC50 is above 6.00. In addition, the pEC50 (with Rat whole blood (RWB); in assay [1]) was above 5.00 throughout.

With `Cn1c(NCc2ccc(Oc3ncc(Cl)cn3)cc2)nc2ccc(N)cc21` [Compound 288], the pIC50 on human 5-LOX was above 6.00. Besides, the pEC50 (with Rat whole blood (RWB); in assay [1]) was above 5.00 in each case.

Turning to `Cn1c(NCc2ccc(Oc3ncc(Cl)cn3)cc2)nc2ccc(NC3COC3)cc21` [Compound 289], the pIC50 at human 5-LOX is above 6.00. Besides, the pEC50 (in the assay on Rat whole blood (RWB); in assay [1]) was above 5.00 throughout.

As for `Cc1cc(Oc2ccc(Cl)cn2)ccc1CNc1nc2ccc(NC3COC3)cc2n1C` [Compound 291], at human 5-LOX, the pIC50 was above 6.00. Further, the results for the pEC50 (in the assay on Rat whole blood (RWB); in assay [1]) were 4.70 to 5.00 and above 5.00, respectively.

As to `Cn1c(NCc2ccc(Oc3ccc(Cl)cn3)cc2Cl)nc2ccc(NC3COC3)cc21` [Compound 294], the pIC50 on human 5-LOX is above 6.00. Besides, the pEC50 in the assay with Rat whole blood (RWB) is below 4.70; in assay [1], above 5.00.

`Cn1c(NCc2ccc(Oc3cnc(Cl)cn3)cc2)nc2ccc(NC3COC3)cc21` [Compound 296]: the pIC50 on human 5-LOX is above 6.00. Moreover, the pEC50 (in the assay on Rat whole blood (RWB); in assay [1]) was above 5.00 throughout.

As for `Cn1c(NCc2ccc(Oc3ccc(Cl)cc3)cn2)nc2ccc(NC3COC3)cc21` [Compound 298], the pIC50 on human 5-LOX is above 6.00. The pEC50 in the assay on Rat whole blood (RWB) was below 4.70; in assay [1] it was above 5.00.

Take `Cn1c(NCc2ccc(Oc3ccc(Cl)cn3)cn2)nc2ccc(NC3COC3)cc21` [Compound 300]: on human 5-LOX, the pIC50 was above 6.00. The pEC50 in the assay with Rat whole blood (RWB) was 4.70 to 5.00; in assay [1] it was above 5.00.

For the molecule `Cn1c(NCc2ccc(Oc3ccc(F)cn3)cc2)nc2ccc(NC3COC3)cc21` [Compound 302], at human 5-LOX, the pIC50 is above 6.00. The pEC50 with Rat whole blood (RWB) was 4.70 to 5.00; in assay [1] it was above 5.00.

As for `Cn1c(NCc2ccc(C(=O)Nc3ccc(Cl)cn3)cc2)nc2ccc(NC3COC3)cc21` [Compound 303], at human 5-LOX, the pIC50 was above 6.00. Moreover, the pEC50 (with Rat whole blood (RWB); in assay [1]) was below 4.70 throughout.

As for `Cn1c(NCc2ccc(COc3ccc(Cl)cn3)cc2)nc2ccc(NC3COC3)cc21` [Compound 305], the pIC50 on human 5-LOX is above 6.00. Further, the pEC50 in the assay on Rat whole blood (RWB) is below 4.70; in assay [1] it was above 5.00.

On to `Cn1c(NCc2ccc(Oc3ccc(Cl)cn3)cc2)nc2ccc(NC(C)(C)C(N)=O)cc21` [Compound 306], for which the pIC50 on human 5-LOX is above 6.00. The pEC50 (in the assay with Rat whole blood (RWB); in assay [1]) was above 5.00 each time.

Consider `Cn1c(NCc2ccc(Oc3ccc(Cl)cc3)nc2)nc2ccc(NC3COC3)cc21` [Compound 307], for which the pIC50 at human 5-LOX is above 6.00. Besides, the pEC50 in the assay with Rat whole blood (RWB) is below 4.70; in assay [1], 4.70 to 5.00.

Regarding `Cn1c(NCc2ccc(Oc3ccc(Cl)cn3)nc2)nc2ccc(NC3COC3)cc21` [Compound 309], the pIC50 on human 5-LOX was above 6.00. The pEC50 (with Rat whole blood (RWB); in assay [1]) was below 4.70 throughout.

`Cc1ccc(Oc2ccc(CNc3nc4ccc(N)cc4n3C)cc2)nn1` [Compound 311]: on human 5-LOX, the pIC50 is above 6.00. The pEC50 in the assay with Rat whole blood (RWB) was above 5.00; in assay [1], below 4.70.

Turning to `Cn1c(NCc2ccc(OCc3ccc(Cl)cn3)cc2)nc2ccc(NC3COC3)cc21` [Compound 315], at human 5-LOX, the pIC50 is above 6.00. In addition, the pEC50 with Rat whole blood (RWB) was below 4.70; in assay [1], 4.70 to 5.00.
